Results reported in patent US8034810B2, “Arylsulfonamido-substituted hydroxamic acid derivatives” (Novartis AG, priority 1999, dated 2011).
Where a name gives a salt, the structure may show the parent alone.

Experiments:
MMP9 = molecular target: T1, MMP9 (Homo sapiens, UniProt P14780); test: Assay of MMP9, fluorogenic peptide substrate; format: biochemical; conditions: activated MMP9 from THP1 cells, 0.5 nM; substrate 25 μM
T1 construct: endogenous in cells; host or cells: THP1 human monocytic leukemia cells, TPA-stimulated; enzyme purified from culture medium
T1 sequence (P14780 107-707 limits assumed): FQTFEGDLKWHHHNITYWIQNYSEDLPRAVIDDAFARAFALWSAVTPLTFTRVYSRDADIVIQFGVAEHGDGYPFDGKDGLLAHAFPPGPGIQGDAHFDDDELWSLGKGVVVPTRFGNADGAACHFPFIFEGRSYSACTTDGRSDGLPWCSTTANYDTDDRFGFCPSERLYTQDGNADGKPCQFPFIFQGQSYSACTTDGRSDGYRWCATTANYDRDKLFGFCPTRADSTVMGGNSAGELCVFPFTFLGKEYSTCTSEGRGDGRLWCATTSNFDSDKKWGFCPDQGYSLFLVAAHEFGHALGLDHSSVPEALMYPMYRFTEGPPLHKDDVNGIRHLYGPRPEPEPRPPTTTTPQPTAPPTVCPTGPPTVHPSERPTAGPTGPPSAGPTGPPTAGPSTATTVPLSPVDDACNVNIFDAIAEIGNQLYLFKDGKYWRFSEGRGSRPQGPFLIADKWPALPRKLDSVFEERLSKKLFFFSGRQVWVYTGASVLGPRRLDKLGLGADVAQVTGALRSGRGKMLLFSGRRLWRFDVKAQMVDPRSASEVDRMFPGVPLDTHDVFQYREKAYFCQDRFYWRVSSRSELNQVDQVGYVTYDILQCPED
Description: MMP9 is prepared form the culture medium of THP1 human monocytic leukemia cells treated with TPA. THP1 cells are maintained in a culture of DMEM/F-12 with 10% FCS and stimulated to produce pro-MMP9 with TPA (1 nM) in serum-free medium for 48 h. All purification procedures are carried out at 4° C. The 1 liters of culture medium is concentrated to 100 ml by Centricon (Amicon) and applied to a column (1×8 cm) of gelatin-sepharose (Pharmacia) equilibrated with 50 mM Tris-Cl (pH=8.0), 300 mM NaCl. The fraction containing pro-MMP-9 is eluted with 10% DMSO in 50 mM Tris-Cl (pH=8.0), 300 mM NaCl, then dialyzed against 50 mM Tris-Cl (pH 7.5), 150 mM NaCl. The fraction is concentrated by Centricon and subjected to column chromatography of Sephadex G200 (2×20 cm) equilibrated with 50 mM Tris-Cl (pH=7.5) containing 150 mM NaCl. The purified Pro-MMP9 is stored at −80° C. as a stock and the necessary amount of pro-form is used for activation. Pro-MMP9 is activated with 1 mM aminophenyl mercury acetate (APMA, ICN Pharmaceuticals) in 50 mM Tris-Cl (pH=7.5) containing 150 mM NaCl, 10 mM CaCl2 and 0.05% Brij-35 (MMP Assay Buffer) for 18 h at 37° C., and the APMA is removed by extensive dialysis against MMP Assay Buffer. The activated MMP9 is stored frozen at −80° C. until use.
The activated MMP-9 (82 kDa) is then used to screen compounds. A fluorogenic peptide, 2-N-methylaminobenzoic acid (Nma)-Gly-Pro-Gln-Gly-Leu-Ala-Gly-Gln-Lys-N^ε-(2,4-dinitrophenyl)(Dnp)-NH2 (Peptide Institute, Osaka, Japan) is used as the only substrate in all MMPs assay in this study at 25 μM. Stock solutions of the substrate are prepared in 100% DMSO at a concentration 1.0 mM. Assays are performed in MMP Assay Buffer. The reaction mixture is added in duplicate to appropriate wells of a 96 well microfluor plate and preincubated at 37° for 30 min. The reaction is started by the addition of 0.5 nM of activated MMP9. Stock solutions of each inhibitor are prepared by dissolving in 100% DMSO. Inhibitors are added into the assay mixture from the diluted solution with 100% DMSO prepared from the stock solutions. An equal volume of DMSO is added to controls. The final concentration of DMSO from inhibitor and substrate solutions is 5.0%. The increase of fluorescence is monitored at 460 nm with excitation at 355 nm. A time point on a linear part of the curve is chosen to determine the activity. The inhibition results are expressed as the inhibitor concentration that produce 50% inhibition (IC50) of the activity in the control reaction.

B16-F10 melanoma cells = test: B16-F10 melanoma experimental metastasis model, lung tumor nodules; format: in vivo, BDF1 mice; conditions: mice, tumor cells i.v.; p.o. 120 mg/kg/dosing; lungs on day 14
Description: The B16-F10 melanoma experimental metastasis model was studied following the method of Fidler. Cells were harvested by trypsinization and washed once with serum-containing medium and three times with cold PBS and then kept on ice. Mice were injected in the tail vein with a suspension of tumor cells (2×10^5 cells/0.1 ml of PBS). Animals were dosed with compounds p.o. at −1 hr, +5 hrs, 23 hrs and 29 hrs relative to the time of the cell injection at the first two days (day 0, 1). After that the animals were dosed once a day in the morning. Compounds were administered as a suspension in 1% carboxymethyl cellulose (Wako, Japan) at a dose of 120 mg/kg/dosing. Vehicle alone was administered to the control group. On day 14, the lung of the mice were removed after sacrificing the animals and the numbers of the tumor nodules were counted manually after fixing with Bouin's solution (2% picric acid in destilled water:10% formaldehyde neutral buffer solution:acetic acid=15:5:1). In this test a decrease in the number of tumor nodules of 47% compared to the vehicle alone was determined for the compound of Example 68.

[1] = tested on: EGFP transfected HT1080 cells; test: Metastasis model with EGFP transfected HT1080 cells, lung fluorescence in nude mice; format: in vivo; conditions: tumor cells i.v., p.o. 60 mg/kg twice a day, lungs on day 17
Description: EGFP transfected HT1080: Nude mice were injected in the tail vein a suspension of tumor cells [2×10^6 cells/0.1 ml of PBS (phosphate buffered saline)]. Animals were dosed with compounds p.o. at −1 hr and +5 hrs relative to the time of the cell injection at the first day (day 0). After that the animals were dosed twice a day, firstly at 9-10:30 a.m. and secondly at 5:30-7:00 p.m. Compounds were administered as a suspension in 1% carboxymethyl cellulose (Wako, Japan) at a dose of 60 mg/kg twice a day. The vehicle alone was administered to the control group. On day 17, the lungs were removed from mice after sacrificing the animals. The removed lung tissues were divided into pieces of approximately 2-3 mm in diameter and then ca. 100 mg of tissues were suspended in 0.2 ml PBS in the microcentrifuge tubes followed by gentle homogenization and centrifugation. […] The fluorescence intensity was determined by using fluorescence plate reader (Cytoflour II) at the excitation and emission wavelength of 485 and 530 nm, respectively. The obtained fluorescence was normalized per lung using the wet lung weight. In this test a decrease in the fluorescence of 74% compared to the vehicle alone was determined for the compound of Example 68.

Row | Compound | IC50 (MMP9) [nM] | decrease in the number of tumor nodules compared to the vehicle alone (B16-F10 melanoma cells) [%] | decrease in the fluorescence compared to the vehicle alone [1] [%]
1 | 2-[(Cyclopropylmethoxy-benzenesulfonyl)-(4-[1,2,4]triazol-1-yl-benzyl)-amino]-N-hydroxyacetamide-hydrochloride salt [Example 82b] | 10.6 |  | 
2 | COc1ccc(CN(CC(=O)NO)S(=O)(=O)c2ccc(OCCCCl)cc2)cc1 [Example 68, 2-{[4-(3-chloro-propoxy)-benzenesulfonyl]-(4-methoxy-benzyl)amino}-N-hydroxy-acetamide] | 1.2 | 47 | 74
3 | O=C(CN(Cc1ccc(-n2cncn2)cc1)S(=O)(=O)c1ccc(OCCC2CC2)cc1)NO [Example 82a] | 17 |  | 
4 | O=C(CN(Cc1ccc(-n2cncn2)cc1)S(=O)(=O)c1ccc(OCc2ccoc2)cc1)NO [Example 82c] | 7.4 |  | 

Further lines, with some results ahead:

Row | IC50 (MMP9) [nM] | Compound | decrease in the number of tumor nodules compared to the vehicle alone (B16-F10 melanoma cells) [%] | decrease in the fluorescence compared to the vehicle alone [1] [%]
5 | 0.2 | C=CCCOc1ccc(S(=O)(=O)N(CC(=O)NO)Cc2ccc(-n3cncn3)cc2)cc1 [Example 79, 2-[(4-but-3-enyloxy-benzenesulfonyl)-(4-[1,2,4]triazol-1-yl-benzyl)-amino]-N-hydroxy-acetamide-hydrochloride salt] |  | 
6 | 3.7 | C=CCCOc1ccc(S(=O)(=O)N(CC(=O)NO)Cc2ccc(-n3ccnc3)cc2)cc1 [Example 80, 2-[(4-But-3-enyloxy-benzenesulfonyl)-(4-imidazol-1-yl-benzyl)-amino]-N-hydroxy-acetamide-hydrochloride] |  | 
7 | 6.3 | C=CCCOc1ccc(S(=O)(=O)N(CC(=O)NO)Cc2ccc(N3CCOCC3)cc2)cc1 [Example 81, 2-[(4-But-3-enyloxy-benzenesulfonyl)-(4-morpholin-4-yl-benzyl)-amino]-N-hydroxy-acetamide-hydrochloride] |  | 
8 | 5.6 | C=CCCOc1ccc(S(=O)(=O)N(CC(=O)NO)Cc2cccc(F)n2)cc1 [Example 83a, 2-([4-But-3-enyloxy-benzenesulfonyl]-(6-fluoro-pyridine-2-yl)methyl-amino)-N-hydroxyacetamide] |  | 
9 | 19.8 | C=CCCOc1ccc(S(=O)(=O)N(CC(=O)NO)Cc2ccc(N3CCCC3)cc2)cc1 [Example 84a, 2-[(4-But-3-enyloxy-benzenesulfonyl)-(4-(pyrrolidin-1-yl)-benzyl)-amino]-N-hydroxyacetamide-hydrochloride] |  | 
